From patent US4535079A, “Alkanolaminoxy derivatives of 3,4-dihydro-2H-1,4-benzothiazin-3-one, their production process, and their pharmaceutical use” (Mediolanum Farmaceutici S.R.L., priority 1982, dated 1985)
Structures can show the parent of a compound that is named as a salt.

How the values were obtained:
[1] = LD50 in the male Wistar rat by intravenous administration; settings: in vivo, i.v.
[2] = tested on: beta-adrenergic cardiac receptors (isolated guinea pig atrium); assay: Beta-blocking activity: isolated guinea pig atrium method; settings: concentration inhibiting 25% of the response to isoprenaline, 29° C., 10 minutes before isoprenaline
Description: (a) Beta-blocking activity: isolated guinea pig atrium method
The compounds under examination were tested on the isolated guinea pig atrium for their capacity to antagonise the positive inotropic and chronotropic effects induced by isoprenaline. The preparations were made up from native guinea pigs weighing 450±50 g and suspended in a 10 ml bath of oxygenated Tyrode maintained at 29° C., the frequency and force of contraction being recorded by means of an isotonic pen loaded with 1.5 g and having an amplification ratio of 1:15. The substance under test was added to the medium in a volume of 0.1 ml 10 minutes before stimulation by isoprenalina administered at the optimum concentration which had been determined on the basis of the reactivity of the preparation.

guinea pig = assay: Protection from the lethal effect of aconitine in the guinea pig; assay type: in vivo; settings: Cavia porcellus, 10 min, intravenous, 10 minutes before aconitine perfusion, read-out: percentage increase in the time of death by aconitine with respect to the control animals; for change in vivo at 0.01 mg/kg: dose 10 μg/kg; for change in vivo at 0.02 mg/kg: dose 20 μg/kg; for change in vivo at 0.015 mg/kg: dose 15 μg/kg; for change in vivo at 0.025 mg/kg: dose 25 μg/kg; for change in vivo at 0.009 mg/kg: dose 9 μg/kg
Description: Protection from the methal effect of aconitine in the guinea pig. For the compounds according to the invention, an evaluation was made of their capacity to antagonise the lethal effect of aconitine in native guinea pigs of both sexes having an average weight of 400±50 g, anesthetized with 10% ethylurethan (1 g/kg i.p.), by making an E.C.G. precardiacal recording. Death was induced by perfusing aconitine through the jugular at a dose of 150 γ/kg/hour (5 ml/hour). The time of commencement of arrhythmia, the time of commencement of fibrillation and the time of death were checked. The product under examination were administered to the jugular vein 10 minutes before commencement of perfusion in doses from 0.01 mg/kg to 10 mg/kg.

[3] = tested on: isolated guinea pig trachea; assay: Beta-blocking activity by the isolated guinea pig trachea method; settings: concentration able to inhibit 50% of the response; 37° C., 12 minutes before stimulation
Description: (b) Beta-blocking activity by the isolated guinea pig trachea method
The series was also tested for beta-blocking activity at the level of the isolated guinea pig trachea, evaluated as antagonism to the effect of isoprenaline.
A trachea segment was withdrawn from animals weighing 450±50 g, and a spiral of tissue was prepared and then suspended in a 20 ml bath of oxygenated Tyrode containing 10^-7 g/ml of acetylcholine and […] of eserine, the bath being temperature-controlled at 37° C. The recording was made by means of an isotonic pen with maximum amplification,loaded to 0.5 g and constantly cibrated.
Having determined the sub-maximum concentration of isoprenaline for stimulating the preparation, the test substance was placed in contact with it at different concentrations 12 minutes before stimulation, then evaluating the antagonistic effect.

SMILES | LD50 [1] | IC25, positive chronotropic effect with isoprenaline [2] | IC25, positive inotropic effect with isoprenaline [2] | change in vivo at 0.01 mg/kg (guinea pig) | IC50, antagonism in the response of the isolated guinea pig trachea to isoprenaline [3] | change in vivo at 0.02 mg/kg (guinea pig) | change in vivo at 0.015 mg/kg (guinea pig) | change in vivo at 0.025 mg/kg (guinea pig) | change in vivo at 0.009 mg/kg (guinea pig)
CC(C)(C)NCC(O)COc1cccc2c1CCC(=O)N2 (stereo not drawn) [Carteolol, 5-(3-tert.butylamino-2-hydroxy-propoxy)-3,4-dihydro-carbostyryl-hydrochloride, reference compound] | 50 mg/kg | 9.05 ng/mL | 1.73 ng/mL | – | – | – | – | – | –
CC(C)(C)NCC(O)COc1ccc2c(c1)SCC(=O)N2 (stereo not drawn) [Compound XIII, 7-(3-tert.butylamino-2-hydroxy)-propoxy-3,4-dihydro-2H-1,4-benzothiazin-3-one] | 60 mg/kg | 70.3 ng/mL | 56.5 ng/mL | 39.7% | 125 ng/mL | – | – | – | –
CC(C)CNCC(O)COc1ccc2c(c1)SCC(=O)N2 (stereo not drawn) [Compound XII] | 82 mg/kg | 550 ng/mL | 361 ng/mL | – | 806 ng/mL | 16.4% | – | – | –
CC(C)NCC(O)COc1ccc2c(c1)SCC(=O)N2 (stereo not drawn) [Compound XI] | 65 mg/kg | 91 ng/mL | 74.3 ng/mL | – | 760 ng/mL | – | 21.3% | – | –
CCC(C)NCC(O)COc1ccc2c(c1)NC(=O)CS2 (stereo not drawn) [Compound X] | 78 mg/kg | 803 ng/mL | 670 ng/mL | – | 660 ng/mL | – | – | 11.3% | –
CC(C)(C)NCC(O)COc1ccc2c(c1)NC(=O)CS2 (stereo not drawn) [IX] | 75 mg/kg | 255 ng/mL | 203 ng/mL | 25.9% | 568 ng/mL | – | – | – | –
CC(C)CNCC(O)COc1ccc2c(c1)NC(=O)CS2 (stereo not drawn) [VIII] | 83 mg/kg | 861 ng/mL | 741 ng/mL | – | 1140 ng/mL | 19% | – | – | –
CC(C)NCC(O)COc1ccc2c(c1)NC(=O)CS2 (stereo not drawn) [VII] | 80 mg/kg | 415 ng/mL | 346 ng/mL | – | 430 ng/mL | – | – | 24.1% | –
CCC(C)NCC(O)COc1ccc2c(c1)SCC(=O)N2 (stereo not drawn) [XIV] | 68 mg/kg | 202 ng/mL | 97.8 ng/mL | – | 250 ng/mL | – | 20.6% | – | –
CCC(C)NCC(O)COc1cccc2c1SCC(=O)N2 (stereo not drawn) [XVIII] | 75 mg/kg | 803 ng/mL | 70.5 ng/mL | 49.2% | 1210 ng/mL | – | – | – | –
CC(C)(C)NCC(O)COc1cccc2c1SCC(=O)N2 (stereo not drawn) [XVII] | 50 mg/kg | 0.992 ng/mL | 0.276 ng/mL | – | 1.5 ng/mL | – | – | – | 55.4%
CC(C)CNCC(O)COc1cccc2c1SCC(=O)N2 (stereo not drawn) [XVI] | 67 mg/kg | 130 ng/mL | 99.5 ng/mL | 32.2% | 112 ng/mL | – | – | – | –
CC(C)NCC(O)COc1cccc2c1SCC(=O)N2 (stereo not drawn) [XV] | 73 mg/kg | 64.1 ng/mL | 58.7 ng/mL | – | 123 ng/mL | – | – | – | 48.6%
